Assay results published in patent US4564641A, “Substituted 1-oxo-2-phenyl-2-(2-alkylaminoethyl)-1,2,3,4-tetrahydronaphthalenes, their preparation and their use” (BASF Aktiengesellschaft, priority 1982, dated 1986).
Where a name gives a salt, the structure may show the parent alone. Read-outs that look alike come from different tables or passages of the source.

Tested on: reserpine-induced hypothermia
Assay: inhibition of reserpine-induced hypothermia in mice (antidepressant action)
Assay type: in vivo, mice (Swiss strain)
Settings: for ED50 (antidepressant action, dose which inhibits the reserpine-induced hypothermia by 50%) / ED50: body temperature two hours after reserpine; for ED50: Mus musculus
Experimental: The antidepressant action of the substances according to the invention was investigated using the following model:
2.15 mg/kg of reserpine administered subcutaneously to male mice (Swiss strain) weighing 20-26 g lowers the body temperature by an average of 3° C., measured two hours after administration of the reserpine and at an ambient temperature of 20°-22° C. Antidepressants inhibit this hypothermia, the inhibition being dose-dependent. The test substances are administered orally, 60 minutes before the administration of reserpine.
The dose which inhibits the reserpine-induced hypothermia by 50%, ie. the ED50, is determined from the linear regression between log dose (mg/kg) and relative decrease in hypothermia.
In some cases, the activity is substantially greater than that of imipramine (for Example 18c, by a factor of 72).

[1] = male mice (Swiss strain), oral, 60 minutes before 2.15 mg/kg reserpine s.c.
[2] = po, read-out: ED50 (antidepressant action, dose which inhibits the reserpine-induced hypothermia by 50%), male mice (Swiss strain), oral, 60 minutes before 2.15 mg/kg reserpine s.c.
[3] = male mice (Swiss strain), oral, 60 minutes before 2.15 mg/kg reserpine s.c., read-out: ED50 (antidepressant action, dose which inhibits the reserpine-induced hypothermia by 50%)

Compound	ED50 [3]	further results
CN(C)CCC1(c2ccccc2)CCc2ccccc2C1=O (racemic) [Example 18a, 1-oxo-2-phenyl-2-(2-dimethylaminoethyl)-1,2,3,4-tetrahydronaphthalene]	–	ED50 (antidepressant action, dose which inhibits the reserpine-induced hypothermia by 50%) [1]: 0.85 mg/kg
CN(C)CCC1(c2ccccc2)CCc2ccccc2C1=O (racemic) [Example 18c, 1-oxo-2-phenyl-2-(2-dimethylaminoethyl)-1,2,3,4-tetrahydronaphthalene]	–	ED50 (antidepressant action, dose which inhibits the reserpine-induced hypothermia by 50%) [1]: 0.09 mg/kg; activity greater than that of imipramine, by a factor of (ratio of ED50 to imipramine, oral, mice): 72
CN(C)CCC1(c2ccccc2)CCc2ccccc2C1=O (centres unmarked) [Example 1, 1-oxo-2-phenyl-2-(2-dimethylaminoethyl)-1,2,3,4-tetrahydronaphthalene]	–	ED50 [2]: 0.14 mg/kg
Cc1cccc(C2(CCN(C)C)CCc3ccccc3C2=O)c1 (centres unmarked) [Example 2, 1-oxo-2-(3-tolyl)-2-(2-dimethylaminoethyl)-1,2,3,4-tetrahydronaphthalenehydrochloride]	6.8 mg/kg	–
CN(C)CCC1(c2ccc(Cl)cc2)CCc2ccccc2C1=O (centres unmarked) [Example 3, 1-oxo-2-(4-chlorophenyl)-2-(2-dimethylaminoethyl)-1,2,3,4-tetrahydronaphthalene]	4.6 mg/kg	–
CN(C)CCC1(c2ccc(F)cc2)CCc2ccccc2C1=O.Cl (centres unmarked) [Example 5, 1-oxo-2-(4-fluorophenyl)-2-(2-dimethylaminoethyl)-1,2,3,4-tetrahydronaphthalene hydrochloride]	4.9 mg/kg	–
CN(C)CCC1(c2cccc(Cl)c2)CCc2ccccc2C1=O.Cl (centres unmarked) [Example 8, 1-oxo-2-(3-chlorophenyl)-2-(2-dimethylaminoethyl)-1,2,3,4-tetrahydronaphthalene hydrochloride]	5.2 mg/kg	–
CN(C)CCC1(c2ccccc2)CCc2c(Cl)cccc2C1=O (centres unmarked) [Example 12, 1-oxo-5-chloro-2-phenyl-2-(2-dimethylaminoethyl)-1,2,3,4-tetrahydronaphthalene]	0.9 mg/kg	–
COc1cccc(C2(CCN(C)C)CCc3ccccc3C2=O)c1.O=C(O)C(=O)O (centres unmarked) [Example 14, 1-oxo-2-(3-methoxyphenyl)-2-(2-dimethylaminoethyl)-1,2,3,4-tetrahydronaphthalene hydrogen oxalate]	2.3 mg/kg	–
CN(C)CCCN1c2ccccc2CCc2ccccc21 [imipramine, reference compound]	–	ED50 [2]: 6.8 mg/kg
